{"source": "patent US20080118980A1", "about": "“Estrogen Enhancing Differentiation of Human Mesenchymal Stromal Cells and Adipose-derived Stromal Cells” (The Board of Trustees of the University of Illinois,, priority 2006, published 2008)", "format_in_all_cases": "cell-based", "key": {"human bone marrow MSCs": {"system": "human bone marrow MSCs", "assay": "Osteogenic differentiation of human bone marrow MSCs modulated by E2 (Example 1)", "text": "(§1) Human bone marrow MSCs were provided by the Center for Gene Therapy of Tulane University. The MSCs were isolated from bone marrow cells donated by a healthy adult volunteer. The passage-1 cells were recovered and expanded by culture in a basic medium composed of DMEM, 10% FBS and 1% antibiotic-antimycotic. Human ASCs were isolated from a healthy person with a lipo-aspirated surgery. The abdomen subcutaneous adipose tissue was finely minced and then digested with 0.075 wt % collagenase type I at 37° C. for 45 min. The cells were then collected by filtration with a cell strainer with pore size of 100 μm diameter. The ASCs were expanded in basic DMEM medium. Upon reaching 80-90% confluence of human MSCs and ASCs, the cells were trypsinized, counted, and subcultured at a density of 10^5 cells/100 mm dish. The cells used for study were passage-2. For osteogenic differentiation, the cells were seeded at a cell density of 10^4 cells/cm2 on 12-well plates and 100-mm petri dishes. Upon reaching 70% confluence, counting as day-0, the cells were exposed to osteogenic differentiation medium supplemented with either 10 nM or 10 pM E2. The osteogenic differentiation medium consisted of basic medium supplemented with 100 nM dexamethasone, 10 mM β-glycerophosphate, and 0.05 mM ascorbic acid-2-phosphate. At the defined time, the cells were collected and analyzed for osteogenic gene expression and differentiation potentials.\n(§2) The cultured cells in 12-well plates were washed twice with PBS, suspended and lysed in 1% Triton-X100 solution. The collected cells were subsequently homogenized using sonication. The DNA content was determined by a fluorometric assay (Bio-Rad). ALP and calcium content were measured by spectrophotometry with a calorimetric kit according to the manufacturers' instructions (Sigma).\n(§3) RNA was extracted from differentiated cells using TRizol reagent (Invitrogen). 5 μg of total RNA was converted to single stranded cDNA using a commercial cDNA synthesis kit. Aliquots of the cDNA were amplified with Ampli-Taq DNA polymerase for ALP, osteocalcin (OCN), core binding factor alpha1 (cbfa1), peroxisome proliferator activated receptors gamma (PPARγ)-2, estrogen receptors (ER) alpha (α) and beta (β), and housekeeping gene GAPDH. 40 cycles were used, each consisting of 45 sec of denaturation at 95° C., 45 sec of annealing at 58° C., and 1 min of polymerization at 72° C."}, "human ASCs": {"system": "human ASCs", "assay": "Osteogenic differentiation of human ASCs modulated by E2 (Example 1)", "text": "as §1, §2, §3"}, "rat bone MSCs": {"system": "rat bone MSCs", "assay": "Proliferation of rat bone MSCs with E2 modulation (MTS, Example 4)", "details": "for cell proliferation (absorbance at 540 nm) vs control: 10^−9 and 10^−6 M E2, day 3, FIG. 9A; for E2 concentration of proliferation peak: day 3", "experimental": "Three month-old, male and female Fisher 344 rats (Charles River Lab., Wilmington, Mass.) were purchased and euthanized by CO^2 inhalation. The tibias and femurs were dissected and bone marrow plugs were flushed out with a syringe (18-gauge needle), and filled with a basic medium consisting of DMEM, 10%FBS and 1% antibiotic-antimycotic. Cells were counted on a hemacytometer, plated at 5×10^7 cells/100-mm petri dish and incubated with basic DMEM medium at 37° C. in 5% CO2. The MSCs were isolated by removing unattached cells via medium exchange. The MSCs were incubated up to 80% confluence and then subcultured at a density of 10^6/100-mm dish. Prior to confluence, the MSCs were trypsinized, counted and used for measuring proliferation rate using E2 modulation.\nIn order to analyze the estrogen function on cell proliferation, 500 of passage-1 MSCs were placed into each well of 96-well plates and exposed to basic medium supplemented with different concentrations of E2 (10^−6M to 10^−9M) (Sigma, St. Louis, Mo.). On day 3, the cell proliferation with different estrogen modulations were quantified using a MTS calorimetric method according to manufacturer's manual (CellTiter 96® Queous One Solution Cell Proliferation Assay, Promega, Madison, Wis.)"}, "[1]": {"details": "day 7, vs differentiation without estrogen supplement"}, "[2]": {"details": "osteogenic differentiation medium supplemented with E2 (10 nM or 10 pM)"}}}
{"smiles": "C[C@]12CC[C@@H]3c4ccc(O)cc4CC[C@H]3[C@@H]1CC[C@@H]2O", "note": "[E2, 17-β estradiol]", "values": [{"measurement": "calcium content", "setting": "human bone marrow MSCs; FIG. 2C", "value": "significantly increased"}, {"measurement": "ALP activities", "setting": "human bone marrow MSCs; after 14 days, FIG. 2B", "value": "little statistical significance"}, {"measurement": "OCN expression (RT-PCR)", "setting": "human bone marrow MSCs; day 7, E2 10 nM", "value": "only densely expressed"}, {"measurement": "cbfa-1 expression (RT-PCR band)", "setting": "human bone marrow MSCs; [1]", "value": "denser band"}, {"measurement": "PPAR-γ2 expression (RT-PCR)", "setting": "human bone marrow MSCs; day 7, vs standard osteogenic medium", "value": "inhibited"}, {"measurement": "cell proliferation (amount of DNA) during osteogenesis", "setting": "human bone marrow MSCs; higher dose of E2, FIG. 2A", "value": "does not affect"}, {"measurement": "ALP and von Kossa staining", "setting": "human bone marrow MSCs; [2]", "value": "denser color"}, {"measurement": "calcium content", "setting": "human ASCs; FIG. 2F", "value": "significantly increased"}, {"measurement": "ALP activities", "setting": "human ASCs; after 14 days, FIG. 2E", "value": "significantly improved"}, {"measurement": "OCN expression (RT-PCR)", "setting": "human ASCs; day 7, E2 10 nM", "value": "only densely expressed"}, {"measurement": "cbfa-1 expression (RT-PCR band)", "setting": "human ASCs; [1]", "value": "denser band"}, {"measurement": "cell proliferation (amount of DNA) during osteogenesis", "setting": "human ASCs; higher dose of E2, FIG. 2D", "value": "inhibits"}, {"measurement": "ALP and von Kossa staining", "setting": "human ASCs; [2]", "value": "denser color"}, {"measurement": "cell proliferation (absorbance at 540 nm) vs control", "setting": "rat bone MSCs; female MSCs", "value": "significantly higher"}, {"measurement": "E2 concentration of proliferation peak", "setting": "rat bone MSCs; female bone MSCs", "value": "10^−6 M"}, {"measurement": "cell proliferation (absorbance at 540 nm) vs control", "setting": "rat bone MSCs; male MSCs", "value": "significantly higher"}, {"measurement": "E2 concentration of proliferation peak", "setting": "rat bone MSCs; male bone MSCs", "value": "10^−9 M"}]}
